In one series the test system is 293 cells. Nature of the series: Cytotoxicity test, MTT assay. It is filed as cell-based. As to conditions: Homo sapiens, HEK293; 1 µM, 72h. Here is the method:
(§1) […]. Various cells in the logarithmic growth phase were seeded in 96-well plates at 6,000 cells/well and cultured for 24h. […]. The dosage of DMSO in the solvent control group was based on the maximum dose of 0.1% used in the test group, with four duplicate wells for each concentration. Cells were treated with the drug for 72h and then added with 20µL 5 mg/mL MTT, cultured at 37°C for 4h, after added 100 µ L triple solution (10% SDS, 5% isobutanol, 12 mM hydrochloric acid), 96-well cell culture plate was placed in an incubator containing 5% CO2 at 37 ± 1°C overnight. OD value at 570nm was measured on a microplate reader.
(§2) The inhibition rate of tumor cell growth was calculated according to the following formula: Inhibition rate(%) = [(OD570controlwell−OD570dosewell)/OD570controlwell] × 100. [formula]

In the next series the test system is A549 cells. Nature of the series: Cytotoxicity test, MTT assay. Format: cell-based. The conditions noted are these: Homo sapiens, A549; 1 µM, 72h. Here is the method: as §1, §2
A further series has as its system HCT-116 cells. Description: Cytotoxicity test, MTT assay. Format: cell-based. The conditions noted are these: Homo sapiens, HCT-116; 1 µM, 72h. The method, then: as §1, §2
In the next series the test system is Hela cells. Description: Cytotoxicity test, MTT assay. Format: cell-based. As to conditions: Homo sapiens, 1 µM, 72h, read-out: Inhibition (%) Hel a. The method, then:
as §1, §2

Another series deals with HepG2 cells. Nature of the series: Cytotoxicity test, MTT assay. Format: cell-based. As to conditions: Homo sapiens, HepG2; 1 µM, 72h; read-out: Inhibition (%) Hep G2. Here is the method: as §1, §2
The next series relates to Huh7 cells. Description: Cytotoxicity test, MTT assay. Format: cell-based. As to conditions: Homo sapiens, Huh-7; 1 µM, 72h; read-out: Inhibition (%) Hu h7. The method, then: as §1, §2
The test system of another series is MCF7 cells. Description: Cytotoxicity test, MTT assay. The conditions noted are these: Homo sapiens, MCF7; 1 µM, 72h; read-out: Inhibition (%) MC F7. It is filed as cell-based. Here is the method: as §1, §2
In another series the test system is MKN45 cells. Nature of the series: Cytotoxicity test, MTT assay. It is filed as cell-based. As to conditions: Homo sapiens, MKN-45; 1 µM, 72h. The method, then: as §1, §2
For a further series, the system named is B and T cells. Nature of the series: Immune cells in blood of HBV-infected mice, flow cytometry. As to conditions: 530 mg/kg/day, once a day, oral gavage, day 9, Figure 19.

Structures can show the parent of a compound that is named as a salt.

Description for B and T cells: Six-week-old male C57 mice were rapidly injected with 10µg/mouse of viral genomic DNA (genotype A) by tail vein injection in a short period. Viral infection was established using a venous hypertension model and randomly divided into groups. […] At the same time, a blank control was set up, and oral administration in uninfected mice was equivalent to the model group.
On day 9, mice were sacrificed to collect blood stained with flow antibody after fission red. All cells were treated with anti-FcγRIII/ II (purchased from BD Biosciences) in PBS for 30 min. CD3e-FITC (purchased from BD Biosciences). CD4-PE, CD8a-APC-Vio770, and CD34-FITC (GE). CD19-APC, CD11b-PE-Cyanine7, and CD117-efflor 450 (purchased from eBioscience). After staining, the samples were suspended using 500µL PBS and analyzed by BD Aria III flow cytometer.

For the molecule `COc1cccc2c1C(=O)c1c(O)c3c(c(O)c1C2=O)C[C@@](O)(C(=O)CO)C[C@@H]3O[C@H]1C[C@H](N)[C@H](O)[C@H](C)O1` [Adriamyci n Hydrochloride, doxorubicin hydrochloride], the inhibition at 1 µM with 293 cells is 57.9%; with A549 cells, 85.8%; in the series with HCT-116 cells it was 71.9%; with Hela cells it was 48.8%; in the series with HepG2 cells, 92.1%; in the series on Huh7 cells it was 76.9%. Besides, the inhibition at 1 µM in the series with MCF7 cells was determined as 88%; with MKN45 cells, 39.4%.
`Nc1ccn([C@@H]2CS[C@H](CO)O2)c(=O)n1` [lamivudine]: the “effect on immune cells in blood” value in the series with B and T cells is reported as “had some inhibitory effects on immune cells”.

(Values after patent publication EP3991729A1, “USE OF AMLEXANOX IN PREPARING ANTI-HEPATITIS VIRUS DRUG” (Marine Biomedical Research Institute Of Qingdao Co., Ltd., priority 2019, dated 2020).)
